Source: patent publication US11723540B2, “Device and method for in vivo photoacoustic diagnosis and photothermal purging of infected blood” (priority 2012, dated 2023)

Key:
[1] = system: B16F10 cultured mouse melanoma cells; assay type: cell-based
Description: B16F10 cultured mouse melanoma cells (ATCC, Rockville, Md.) were used in this experiment. The cells were maintained using standard procedures (Ara et al. 1990, Weight et al. 2006, Zharov et al. 2006), including serial passage in phenol-free RPMI 1640 medium (Invitrogen, Carlsbad, Calif.) supplemented with 10% fetal bovine serum (FBS, Invitrogen). For comparison to the detection of unlabeled melanoma cells, the endogenous cell absorption was increased by staining with ICG (Akorn Inc., USA), a strongly absorbent dye in the NIR range, for 30 min at 37° C. and in the presence of 5% CO2.

[2] = mouse, in vivo
Description: In this experiment, a prototype PAFC system was used to detect Lymphazurin circulating in the blood vessels of a mouse ear.
The prototype PAFC system was built on the platform of an Olympus BX51 microscope (Olympus America, Inc.) and a tunable optical parametric oscillator (OPO) pumped by an Nd:YAG laser (Lotis Ltd., Minsk, Belarus). […] Laser energy was directed to the blood vessels using a conventional lens, or an optical fiber. PA waves emitted by the cells were detected by ultrasound transducers (unfocused Panametrics model XMS-310, 10 MHz; focused cylindrical Panametrics model V312-SM, 10 MHz, focused lengths of 6 mm, 12 mm, and 55 mm; and customized resonance transducers), and the ultrasound transducer outputs were conditioned by an amplifier (Panametrics model 5662, bandwidth 50 kHz-5 MHz; Panametrics model 5678, bandwidth 50 kHz-40 MHz; customized amplifiers with adjustable high and low frequency boundaries in the range to 50-200 KHz and 1-20 MHz, respectively; resonance bandwidth of 0.3-1.0 MHz). The amplifier output signals were recorded with a Boxcar data acquisition system (Stanford Research Systems, Inc.) and a Tektronix TDS 3032B oscilloscope, and were analyzed using standard and customized software. […] The signals from the oscilloscope screen were recorded with a digital camera (Sony, Inc.) and video camera (JVC, Inc.). […]

SMILES | toxicity after labeling (trypan blue exclusion) [1] | clearance of Lymphazurin from the blood [2]
CC1(C)C(/C=C/C=C/C=C/C=C2\N(CCCCS(=O)(=O)O)c3ccc4ccccc4c3C2(C)C)=[N+](CCCCS(=O)(=O)[O-])c2ccc3ccccc3c21 [ICG, Indocyanine Green] | No toxicity was observed | –
CCN(CC)c1ccc(C(=C2C=CC(=[N+](CC)CC)C=C2)c2cc(S(=O)(=O)[O-])ccc2S(=O)(=O)[O-])cc1.[Na+] [Lymphazurin, Isosulfan Blue] | – | 50 min
